Common to all, as to assay type: cell-based, human
One data set relates to NCI-60 cell line panel. Kind of data set: NCI-60 single-dose assay, whole panel. As to conditions: summary over the panel. The text has this:
We first evaluated the cytotoxic activity of tricyclic-pyrrole carboxamides 1–20 using the NCI-60 cell line panel, representing nine different human cancers: leukemia, melanoma, and cancers of the lung, colon, central nervous system (CNS), ovary, kidney, prostate, and breast (the one-dose graph for compounds 1–20 is reported in Supplementary Materials, Figures S43–S62). Compounds 1, 5, 10, 11, 17, and 20 satisfied pre-determined threshold inhibition criteria in a minimum number of cell lines; therefore, they were also tested in the full five-dose assay (Figures S63–S68 in the Supplementary Materials).

The subject of data set [1] is CAKI-1 (renal cancer cell line). Kind of data set: NCI-60 single-dose assay. The note with it: Homo sapiens, CAKI-1, read-out: growth inhibition (GI%) and cytotoxicity (negative values). In a few lines: (§1)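 NCI-60 one-dose format: each compound is tested at a single dose against human tumour lines for cytotoxic effect.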
Data set [2] has as its system 786-0 (renal cancer cell line). Kind of data set: NCI-60 single-dose assay. As to conditions: Homo sapiens, 786-0, read-out: growth inhibition (GI%) and cytotoxicity (negative values). In a few lines: as §1
The subject of data set [3] is NCI-H226 (non-small cell lung cancer cell line). Kind of data set: NCI-60 single-dose assay. The note with it: Homo sapiens, NCI-H226, read-out: growth inhibition (GI%) and cytotoxicity (negative values). The gist of the method:
as §1

For data set [4], the system named is SK-MEL-2 (melanoma cell line). Kind of data set: NCI-60 single-dose assay. The note with it: Homo sapiens, SK-MEL-2, read-out: growth inhibition (GI%) and cytotoxicity (negative values). The gist of the method: as §1
Data set [5] relates to NCI-H23 (non-small cell lung cancer cell line). Kind of data set: NCI-60 single-dose assay. The note with it: Homo sapiens, NCI-H23, read-out: growth inhibition (GI%) and cytotoxicity (negative values). In a few lines: as §1
Data set [6] has as its system SK-MEL-28 (melanoma cell line). Kind of data set: NCI-60 single-dose assay. As to conditions: Homo sapiens, SK-MEL-28, read-out: growth inhibition (GI%) and cytotoxicity (negative values). The gist of the method:
as §1

In data set [7] the test system is HCT-15 (colon cancer cell line). Kind of data set: NCI-60 single-dose assay. The note with it: Homo sapiens, HCT-15, read-out: growth inhibition (GI%) and cytotoxicity (negative values). The gist of the method: as §1
Data set [8] deals with MDA-MB-435 (melanoma cell line). Kind of data set: NCI-60 single-dose assay. As to conditions: Homo sapiens, MDA-MB-435, read-out: growth inhibition (GI%) and cytotoxicity (negative values). The gist of the method:
as §1

The subject of data set [9] is SK-MEL-5 (melanoma cell line). Kind of data set: NCI-60 single-dose assay. As to conditions: human. The gist of the method:
as §1

Data set [10] deals with COLO 205 (colon cancer cell line). Kind of data set: NCI-60 single-dose assay. The note with it: for growth inhibition (GI%) and cytotoxicity (negative values): human; for inhibition at 10 µM: Homo sapiens, COLO 205, read-out: growth inhibition (GI%) and cytotoxicity (negative values). The gist of the method: as §1
The next data set concerns M14 (melanoma cell line). Kind of data set: NCI-60 single-dose assay. The note with it: for growth inhibition (GI%) and cytotoxicity (negative values): human; for inhibition at 10 µM: Homo sapiens, M14, read-out: growth inhibition (GI%) and cytotoxicity (negative values). In a few lines:
as §1

Data set [11] concerns NCI-H460 (non-small cell lung cancer cell line). Kind of data set: NCI-60 single-dose assay. As to conditions: Homo sapiens, NCI-H460, read-out: growth inhibition (GI%) and cytotoxicity (negative values). In a few lines:
as §1

Data set [12] concerns CCRF-CEM (leukemia cell line). Kind of data set: NCI-60 single-dose assay. The note with it: Homo sapiens, read-out: growth inhibition (GI%) and cytotoxicity (negative values). In a few lines: as §1
Data set [13] has as its system KM12 (colon cancer cell line). Kind of data set: NCI-60 single-dose assay. As to conditions: Homo sapiens, KM12, read-out: growth inhibition (GI%) and cytotoxicity (negative values). The gist of the method:
as §1

In data set [14] the test system is MALME-3M (melanoma cell line). Kind of data set: NCI-60 single-dose assay. The note with it: Homo sapiens, Malme-3M, read-out: growth inhibition (GI%) and cytotoxicity (negative values). In a few lines:
as §1

For data set [15], the system named is UO-31 (renal cancer cell line). Kind of data set: NCI-60 single-dose assay. As to conditions: Homo sapiens, UO-31, read-out: growth inhibition (GI%) and cytotoxicity (negative values). The gist of the method: as §1
Data set [16] deals with EKVX (non-small cell lung cancer cell line). Kind of data set: NCI-60 single-dose assay. The note with it: Homo sapiens, read-out: growth inhibition (GI%) and cytotoxicity (negative values). In a few lines:
as §1

For data set [17], the system named is MCF-7 (breast cancer cell line). Kind of data set: NCI-60 single-dose assay. The note with it: Homo sapiens, MCF7, read-out: growth inhibition (GI%) and cytotoxicity (negative values), MCF-7, 10^−5 M. In a few lines:
as §1

Data set [18] has as its system MDA-MB-231/ATCC (breast cancer cell line). Kind of data set: NCI-60 single-dose assay. As to conditions: Homo sapiens, MDA-MB-231, read-out: growth inhibition (GI%) and cytotoxicity (negative values). In a few lines: as §1
Data set [19] has as its system BT-549 (breast cancer cell line). Kind of data set: NCI-60 single-dose assay. As to conditions: Homo sapiens, BT-549, read-out: growth inhibition (GI%) and cytotoxicity (negative values). The gist of the method:
as §1

Molecules are shown by their SMILES.

The record followed here is PMC12566046, “Arylpiperazinyl-Benzocycloheptapyrrole-Carboxamides Endowed with Dual Anticancer and Antiviral Activities” (Molecules, 2025).

What is called inhibition is the percentage by which the read-out fell short of the control.

In the case of `COc1ccccc1N1CCN(CCNC(=O)c2[nH]c3c(c2Cl)CCCc2ccccc2-3)CC1` [Compound 5], the “growth inhibition (GI%) reached against cancer cell lines of the NCI-60 panel” value (from here on “growth inhibition (GI%) reached”) in the data set on NCI-60 cell line panel is listed as greater than 90%. Also, the inhibition at 10 µM in data set [1] was 77.9%; in data set [2] it was 63%; in [3], less than 60%; in data set [4] it was less than 60%; in data set [5] it was 62.2%; in data set [6], less than 60%. Also, the inhibition at 10 µM was 92.5% in data set [7]; 61.8% in data set [8]; 79.2% in data set [11]; 71.6% in data set [12]; 67.7% in data set [13]; less than 60% in data set [14]. Further, the figures for the inhibition at 10 µM in data set [15] and in data set [16] were 70% and 94.2%, respectively. Further, the “growth inhibition (GI%) and cytotoxicity (negative values)” value (“growth inhibition (GI%) and cytotoxicity” below) in data set [9] was −62.59%; in [10], −48.74%; with M14 (melanoma cell line), −22.16%.
`O=C(NCCN1CCN(c2ccccc2)CC1)c1c(Cl)[nH]c2c1CCCc1ccccc1-2` [Compound 12, 2-Chloro-N-(2-(4-phenylpiperazin-1-yl)ethyl)-1,4,5,6-tetrahydrobenzo[6,7]cyclohepta[1,2-b]pyrrole-3-carboxamide]: the inhibition at 10 µM in data set [4] was less than 60%; in data set [17], 60.9%; in data set [6] it was less than 60%; in data set [7], less than 60%; in data set [8], less than 60%; in data set [10] it was less than 60%. The inhibition at 10 µM in the data set on M14 (melanoma cell line) was less than 60%; in [12] it was less than 60%; in data set [13] it was less than 60%; in data set [14], less than 60%; in [16], 72.3%. Moreover, in [9], the “growth inhibition (GI%) and cytotoxicity” value is −7.83%.
For the compound `O=C(NCCN1CCN(c2ccc(Cl)cc2)CC1)c1c(Cl)[nH]c2c1CCCc1ccccc1-2` [Compound 13], the inhibition at 10 µM in [4], in [17], in data set [6], in [7], in data set [18] and in data set [8] was less than 60% throughout. The inhibition at 10 µM (in [10]; with M14 (melanoma cell line); in [19]; in [12]; in [13]; in [14]) was less than 60% in each case. Also, in data set [9], the “growth inhibition (GI%) and cytotoxicity” value was −21.64%.
Turning to `O=C(NCCN1CCN(c2ccccc2Cl)CC1)c1c(Cl)[nH]c2c1CCCc1ccccc1-2` [Compound 14], the inhibition at 10 µM in [4], in [17], in [6], in data set [7], in data set [18] and in data set [8] was less than 60% throughout. In addition, the inhibition at 10 µM (in data set [10]; in the data set with M14 (melanoma cell line); in data set [19]; in [12]; in [13]; in data set [14]) was less than 60% throughout. The inhibition at 10 µM in data set [15] stood at 63.6%; in data set [16] it was 72.7%. Besides, the “growth inhibition (GI%) and cytotoxicity” value in [9] is given as −3.84%.
Regarding `COc1ccccc1N1CCN(CCNC(=O)c2c(Cl)[nH]c3c2CCCc2ccccc2-3)CC1` [Compound 15], the inhibition at 10 µM in data set [1] is 61%; in data set [2], less than 60%; in data set [3], less than 60%; in data set [4], less than 60%; in data set [5], less than 60%; in data set [17], 73%. Further, the inhibition at 10 µM in [6] is less than 60%; in data set [7], 66.4%; in data set [18], less than 60%; in data set [8], less than 60%; in [10], less than 60%; in the data set on M14 (melanoma cell line), 84.8%. Moreover, the inhibition at 10 µM in data set [19] is 66.5%; in data set [11], less than 60%; in data set [12] it was less than 60%; in data set [13], less than 60%; in [14], 70.1%; in data set [15] it was 63.6%. In data set [16], the inhibition at 10 µM is 81.7%. Besides, the “growth inhibition (GI%) and cytotoxicity” value in data set [9] is listed as −75.22%.
Turning to `CCOc1ccccc1N1CCN(CCNC(=O)c2c(Cl)[nH]c3c2CCCc2ccccc2-3)CC1` [Compound 17], the “growth inhibition (GI%) reached” value with NCI-60 cell line panel was greater than 90%. Also, the inhibition at 10 µM in data set [1] was 71.6%; in data set [2] it was less than 60%; in [3], 60.4%; in data set [4], less than 60%; in data set [5], less than 60%; in data set [17] it was 82.2%. The inhibition at 10 µM in [6] is 71.5%; in data set [7] it was 81%; in [18], less than 60%; in [8], 69.3%; in data set [19] it was 80.7%; in data set [11] it was 70%. Moreover, the inhibition at 10 µM in [12] is 61.6%; in [13], less than 60%; in [14] it was 90.3%; in data set [15], 69.3%; in [16] it was 87.5%. Moreover, the “growth inhibition (GI%) and cytotoxicity” value in data set [9] is −88.73%; in data set [10], −47.24%; with M14 (melanoma cell line) it was −7.74%.
With `N#Cc1ccccc1N1CCN(CCNC(=O)c2c(Cl)[nH]c3c2CCCc2ccccc2-3)CC1` [Compound 18, 2-Chloro-N-(2-(4-(2-cyanophenyl)piperazin-1-yl)ethyl)-1,4,5,6-tetrahydrobenzo[6,7]cyclohepta[1,2-b]pyrrole-3-carboxamide], the “growth inhibition (GI%) reached” value with NCI-60 cell line panel is listed as greater than 90%. The inhibition at 10 µM is 62.7% in [1]; less than 60% in data set [2]; less than 60% in [3]; less than 60% in data set [4]; less than 60% in data set [5]; 78.5% in data set [17]. Besides, the inhibition at 10 µM in data set [6] is less than 60%; in [7], 61.3%; in [18], less than 60%; in [8], 64.5%; in data set [10], less than 60%; in the data set on M14 (melanoma cell line), less than 60%. The inhibition at 10 µM was 78.3% in data set [19]; less than 60% in [11]; less than 60% in data set [12]; less than 60% in data set [13]; less than 60% in data set [14]; 67% in data set [15]. In addition, in [16], the inhibition at 10 µM turned out to be 92.8%. The “growth inhibition (GI%) and cytotoxicity” value in data set [9] is reported as −67.02%.
